Experimental data reported in paper PMC2099433, “The binding site for neohesperidin dihydrochalcone at the human sweet taste receptor” (BMC Structural Biology, 2007).
Changes are numbered by the printed parent chain. Where a SMILES comes first, the peptide text is derived from it.

How the values were obtained:
[1] = molecular target: T1, hTAS1R2 + hTAS1R3 F624L^2.61 (Homo sapiens, UniProt Q7RTX0+Q8TE23, F624L); assay: Calcium response (FLIPR), hTAS1R3 mutant coexpressed with hTAS1R2; type: cell-based; conditions: variant F624L^2.61; for EC50: (>) EC50 not calculable because saturation is not reached; for Emax: read-out: maximal signal (% of wt)
T1 construct: expressed in transfected cells; host or cells: HEK293T cells stably expressing G16Gust44
T1 sequence (Q8TE23 20-839): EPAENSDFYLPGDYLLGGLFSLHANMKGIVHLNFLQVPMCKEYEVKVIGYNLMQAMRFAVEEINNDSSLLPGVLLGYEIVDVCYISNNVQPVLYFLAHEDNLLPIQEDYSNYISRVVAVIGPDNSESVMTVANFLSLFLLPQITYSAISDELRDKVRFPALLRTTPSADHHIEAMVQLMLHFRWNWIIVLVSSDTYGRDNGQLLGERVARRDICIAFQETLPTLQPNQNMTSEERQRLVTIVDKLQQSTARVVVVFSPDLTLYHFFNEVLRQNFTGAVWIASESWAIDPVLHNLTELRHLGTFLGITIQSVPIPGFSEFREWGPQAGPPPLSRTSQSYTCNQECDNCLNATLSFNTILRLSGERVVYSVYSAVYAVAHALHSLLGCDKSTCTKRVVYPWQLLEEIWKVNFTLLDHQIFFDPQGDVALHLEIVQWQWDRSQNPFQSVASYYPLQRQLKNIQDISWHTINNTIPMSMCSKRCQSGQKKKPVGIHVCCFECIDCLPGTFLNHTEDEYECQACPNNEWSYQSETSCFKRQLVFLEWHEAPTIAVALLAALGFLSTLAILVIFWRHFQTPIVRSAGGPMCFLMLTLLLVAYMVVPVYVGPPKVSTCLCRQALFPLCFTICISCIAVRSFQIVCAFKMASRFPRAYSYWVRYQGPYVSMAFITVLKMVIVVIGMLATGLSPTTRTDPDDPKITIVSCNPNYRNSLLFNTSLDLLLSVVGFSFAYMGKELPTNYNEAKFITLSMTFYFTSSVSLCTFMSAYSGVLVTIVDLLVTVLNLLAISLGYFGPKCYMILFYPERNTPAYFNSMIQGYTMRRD
T1 sequence (Q7RTX0 21-852 F624L): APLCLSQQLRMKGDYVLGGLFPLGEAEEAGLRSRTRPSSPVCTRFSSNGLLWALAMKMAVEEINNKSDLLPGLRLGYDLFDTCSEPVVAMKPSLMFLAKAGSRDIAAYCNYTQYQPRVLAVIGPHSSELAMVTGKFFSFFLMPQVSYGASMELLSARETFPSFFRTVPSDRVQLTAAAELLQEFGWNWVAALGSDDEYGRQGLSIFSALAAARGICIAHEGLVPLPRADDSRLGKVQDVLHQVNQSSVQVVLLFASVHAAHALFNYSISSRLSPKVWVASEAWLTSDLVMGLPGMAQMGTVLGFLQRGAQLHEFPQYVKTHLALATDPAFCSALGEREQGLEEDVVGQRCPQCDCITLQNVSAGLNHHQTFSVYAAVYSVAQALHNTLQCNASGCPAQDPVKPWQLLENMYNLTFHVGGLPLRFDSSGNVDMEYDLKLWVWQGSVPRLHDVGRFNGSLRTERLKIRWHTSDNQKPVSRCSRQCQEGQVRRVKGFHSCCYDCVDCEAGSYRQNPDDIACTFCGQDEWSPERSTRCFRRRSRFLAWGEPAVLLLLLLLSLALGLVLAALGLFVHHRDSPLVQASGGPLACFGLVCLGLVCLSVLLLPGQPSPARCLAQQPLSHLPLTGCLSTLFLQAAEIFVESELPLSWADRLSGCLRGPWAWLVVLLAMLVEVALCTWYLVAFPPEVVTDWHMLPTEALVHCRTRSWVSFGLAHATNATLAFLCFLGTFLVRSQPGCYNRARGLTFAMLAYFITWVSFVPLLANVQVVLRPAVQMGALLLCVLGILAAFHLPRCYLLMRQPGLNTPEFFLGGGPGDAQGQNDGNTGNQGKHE
Method in brief: (§1)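 HEK293T cells stably expressing chimeric G16Gust44 were transiently transfected with C-terminally HSV-tagged hTAS1R2 and mutant hTAS1R3, then loaded 24 h later with Fluo4-AM for 1 h. Calcium mobilization after sweet-tastant application was read by FLIPR, mock-corrected and expressed as ΔF/F.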

[2] = molecular target: T2, hTAS1R2 + hTAS1R3 Y699F^4.60 (Homo sapiens, UniProt Q7RTX0+Q8TE23, Y699F); assay: as above; type: cell-based; conditions: variant Y699F^4.60; for Emax: read-out: maximal signal (% of wt)
T2 construct: expressed in transfected cells; host or cells: HEK293T cells stably expressing G16Gust44
T2 sequence (Q7RTX0 21-852 Y699F): T1 sequence (Q7RTX0 21-852 F624L) with L604F, Y679F
T2 sequence (Q8TE23 20-839): T1 sequence (Q8TE23 20-839)
Method in brief: as §1

| EC50 [1] [µM] | Emax [1] [%] | EC50 [2] [µM] | Emax [2] [%] | Structure (SMILES) |
| --- | --- | --- | --- | --- |
| > 1000 | 35 ± 70 | 600 ± 400 | 72 ± 17 | COc1ccc(CCC(=O)c2c(O)cc(O[C@@H]3O[C@H](CO)[C@@H](O)[C@H](O)[C@H]3O[C@@H]3O[C@@H](C)[C@H](O)[C@@H](O)[C@H]3O)cc2O)cc1O [NHDC, neohesperidin dihydrochalcone] |
| 1400 ± 200 | 21 ± 4 | 1200 ± 300 | 56 ± 2 | COC(=O)[C@H](Cc1ccccc1)NC(=O)[C@@H](N)CC(=O)O [aspartame] (HELM PEPTIDE1{D.F.[CO[*:1]]}$$$$V2.0) |
